Results on 57 compounds are retold here after paper PMC12040169 (PLOS Biology, 2025).

Broadly, the viability is a read-out of living cells in per cent, often relative to untreated cells.

The series can be described thus: in vitro. The settings on record: human, hela cells, % viability.

Each structure is given as a SMILES string.

For the compound `O=C(COc1cccc(Cl)c1)NNC(=S)Nc1ccccc1` [CBK267180], the viability at 28.5 h, 10 µM worked out at 88.4%.
The value for `O=C(Nc1ccncc1)c1ccc(CNS(=O)(=O)c2cccc(C(F)(F)F)c2)cc1` [CBK267181] was 88.5%; that for `Cc1cc(-c2nn3c(-c4ccccc4)nnc3s2)c2ccccc2n1` [CBK267187] was 101%; that for `CN(C)c1nc(NCc2ccccc2)nc(SCC(=O)Nc2ccccc2Cl)n1` [CBK267190] was 93.3%.
The value for `O=C(CSc1nnnn1-c1ccccc1)Nc1nsc(-c2ccccc2)n1` [CBK267192] was 108%.
Then `Cc1cc(C)c(C)c(S(=O)(=O)NCc2ccc(C(=O)Nc3ccncc3)cc2)c1C` [CBK267193], with 90.5%; and `Nc1nonc1C(=O)NCCNCc1ccc(Cl)cc1` [CBK267194], with 101%.
On to `CC(C)C(NS(=O)(=O)c1ccc(Oc2ccccc2Cl)cc1)C(=O)O` (stereo not drawn) [CBK267195], for which the viability at 28.5 h, 10 µM was found to be 100%.
Then `Cc1nnc(SCC(=O)N2CCN(Cc3ccccc3)CC2)s1` [CBK267196], with 96%.
Then `O=C(O)c1ccccc1-c1ccccc1C(=O)NCCCO` [CBK267197], with 92.3%.
The value for `O=C(O)c1cccc(S(=O)(=O)N2CCC(C(=O)O)CC2)c1` [CBK267199] was 93.6%.
`O=C(Cn1nnc2ccccc21)NCCN1CCCC1` [CBK267200]: the viability at 28.5 h, 10 µM is 106%.
On to `C=CCOc1c(Br)cc(CNc2ccc(C(=O)O)cc2)cc1OC` [CBK267202], for which the viability at 28.5 h, 10 µM is 111%.
`CN1CCN(S(=O)(=O)c2ccc3c(c2)oc(=O)c2cc(S(=O)(=O)N4CCN(C)CC4)ccc23)CC1` [CBK267206]: the viability at 28.5 h, 10 µM amounted to 85%.
The value for `Cc1ccc(-n2ncc(C(=O)N3CCc4ccccc4C3)c2NC(=O)c2ccco2)cc1C` [CBK267207] was 100%; that for `O=C(O)c1cccc(-c2ccc(/C=C\c3nc(O)c([N+](=O)[O-])c(=O)[nH]3)o2)c1` [CBK267209] was 96.9%.
Then `COC(=O)Cc1ccc(NC(=S)Nc2ccc(N3CCOCC3)cc2)cc1` [CBK267211], with 87.4%; and `CCNC(=S)NC(=Nc1nc(C)cc(C)n1)NCc1cccnc1` [CBK267212], with 97.2%.
Then `O=C(NCCO)NC(=S)c1ccccc1` [CBK267213], with 95.2%; and `O=C(Cn1c(-c2ccccn2)nc2ccccc21)NCCN1CCOCC1` [CBK267214], with 95%; and `c1ccc(CSc2nnc(COc3cccc4ccccc34)n2Cc2ccccc2)cc1` [CBK267215], with 116%.
With `Fc1ccccc1Nc1nc(-c2ccncc2)cs1` [CBK267216], the viability at 28.5 h, 10 µM was 103%.
Then `Cc1cc(C)nc(NS(=O)(=O)c2ccc(Nc3ncnc(N)c3[N+](=O)[O-])cc2)n1` [CBK267217], with 96.6%; and `CCN1CCN(C(=O)CN(C)S(=O)(=O)c2ccc(Cl)cc2)CC1` [CBK267218], with 100%; and `N#Cc1ccsc1NC(=O)CSc1nnc[nH]1` [CBK267221], with 87.7%.
As for `COC(=O)c1c(NC(=O)CSc2nc[nH]n2)sc2c1CCCC2` [CBK267222], the viability at 28.5 h, 10 µM turned out to be 81.6%.
Then `O=C(O)COc1ccc(Br)cc1/C=C\c1nc(O)c([N+](=O)[O-])c(=O)[nH]1` [CBK267223], with 88.5%; and `CCOC(=O)c1c(NC(=O)CSc2nc[nH]n2)sc2c1CCC2` [CBK267225], with 94.5%.
Then `COc1ccc(N2C(=O)CC(NNC(=O)CNC(C)=O)C2=O)cc1` (stereo not drawn) [CBK267228], with 87.7%; and `COc1ccc(-c2nc(NC(=O)CSc3n[nH]c(N)n3)ns2)cc1` [CBK267236], with 81.8%.
Then `O=C(NCCO)c1nc(NCCO)c2ccccc2n1` [CBK267239], with 110%.
`N#CC1=C(N)N2C(=C(C#N)C13CCN(Cc1ccccc1)CC3)Nc1ccccc12` [CBK267241]: the viability at 28.5 h, 10 µM stood at 108%.
The value for `Cc1ccc(-c2csc3ncnc(SCc4csc(C)n4)c23)cc1` [CBK267244] was 91.7%; that for `FC(F)(F)c1cccc(NC(=S)Nc2ccc(Cc3ccncc3)cc2)c1` [CBK267251] was 89.1%; that for `Cc1cc(C)nc(N/C(=N\C(=S)Nc2cccc(Cl)c2C)NCc2cccnc2)n1` [CBK267254] was 93.5%.
Consider `COc1cc(OC)nc(NC(=O)CN2CCN(c3ccc(F)cc3)CC2)n1` [CBK267259], for which the viability at 28.5 h, 10 µM stood at 96.5%.
Then `Cc1cc(/C=C(\C#N)c2nc3ccccc3[nH]2)c(C)n1-c1ccc(C(=O)O)cc1` [CBK267262], with 94.7%.
For `c1cnc2cc(Oc3ccc4nccnc4c3)ccc2n1` [CBK267266], the viability at 28.5 h, 10 µM turned out to be 99.4%.
Then `Nc1ncnc(NCCCN2CCOCC2)c1[N+](=O)[O-]` [CBK267267], with 91.8%; and `N#Cc1ccccc1CSc1nnc(-c2ccco2)n1-c1ccccc1` [CBK267270], with 91.8%.
The value for `Cc1cccnc1Nc1nc(-c2ccccn2)cs1` [CBK267272] was 91.5%; that for `O=C(CSc1nc[nH]n1)Nc1nsc(-c2ccc(Cl)cc2)n1` [CBK267273] was 110%; that for `O=C(O)C1(NS(=O)(=O)c2ccc(F)c(Cl)c2)CCCCC1` [CBK267276] was 98.2%.
The value for `NC(=O)CSc1nnc(COc2ccc(Br)cc2)n1-c1ccccc1` [CBK267277] was 101%; that for `COc1ccc(S(=O)(=O)N(C)CC(=O)Nc2ccc(C(N)=O)cc2)cc1C` [CBK267278] was 88%; that for `COc1ccc(NC(=O)CC2NC(=O)NC2=O)cc1` (stereo not drawn) [CBK267279] was 86.5%.
Take `O=C(CSc1nc2sc3c(c2c(=O)n1CCc1ccccc1)CCCC3)Nc1ccccc1` [CBK267281]: the viability at 28.5 h, 10 µM amounted to 112%.
Then `Cc1nnc2sc(-c3cccc(NC(=S)NC(=O)c4cc5ccccc5o4)c3)nn12` [CBK267282], with 87.4%; and `Nc1ncnc(NCCc2c[nH]c3ccccc23)c1[N+](=O)[O-]` [CBK267283], with 29.6%.
The value for `CN(C)CCCNc1nc(-c2cccc(Cl)c2)nc2ccccc12` [CBK267284C] was 81.5%; that for `CCCCC12CN3CC(C)(CN(C1)C31C(=O)N(C)c3ccc(C)cc31)C2=O` (stereo not drawn) [CBK267286] was 96.1%; that for `CCN(CC)CCNc1ncnc(N)c1[N+](=O)[O-]` [CBK267287] was 82.8%.
Regarding `Cc1ccc(-c2noc(CN3CCN(Cc4ccccc4)CC3)n2)cc1` [CBK267288], the viability at 28.5 h, 10 µM came to 91.3%.
The value for `COc1ccc(-c2nc(NC(=O)CSc3nnc(C)s3)ns2)cc1` [CBK267290] was 96.9%.
Then `O=C(NCc1ccccn1)c1ccc(CNS(=O)(=O)c2cccc(C(F)(F)F)c2)cc1` [CBK267291], with 87.7%; and `C=CCn1c(S)nnc1COc1cccc2ccccc12` [CBK267292], with 89.4%; and `Cc1ccc(Cl)c(NC(=O)NCCN2CCN(c3ccccc3[N+](=O)[O-])CC2)c1` [CBK267293], with 94.5%.
